Laboratory results from patent publication US9561228B2 (Celgene Avilomics Research, Inc., priority 2013, dated 2017).

Key:
[1] = system: HT-29 cells (colorectal adenocarcinoma); test: Inhibition of cancer cell proliferation, HT-29 (CellTiterGlo, 72 hours); assay type: cell-based; settings: Homo sapiens
Method in brief: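 HT-29 cells seeded at 3000/well, then treated with 3-fold serial dilutions from a 5,000 nM two-fold solution in serum-free RPMI1640, untreated wells as control, for 72 h at 37° C. CellTiterGlo luminescence converted to cell number via a standard curve; GI50 from percent inhibition versus untreated growth.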

[2] = system: A375 cells (malignant melanoma); test: Inhibition of cancer cell proliferation, A375 (CellTiterGlo, 72 hours); assay type: cell-based; settings: Homo sapiens, A-375
Experimental: Measurement of Inhibition of Cancer Cell Proliferation (A375/Malignant Melanoma)
The following protocol used an A375 cell line, which cell line is a model for malignant melanoma. A375 cells were split and 3000 cells in […] of growth medium were added per well of a flat-bottom 96-well plate. A two-fold test compound solution in serum-free DMEM was made, starting at 5,000 nM. Then, 3-fold serial dilutions were made across the plate from well 1 to well 11. Well 12, the last well in a row on the plate, was left as untreated control. 100 μl compound solutions were then transferred to the wells, so the total volume of media was 200 μl per well. Plates were returned to a 37° C. incubator, and the cells were cultured for 72 hours. To measure cell proliferation after 72 hours, media was discarded from the plates, 50 μl/well of fresh medium was added, and 50 μl CellTiterGlo solution was added (Promega Cat#G7573). The plate was covered with a dark lid and incubated for 10 min. A white sealing tape was applied to the bottom of the plate, and the plate was read in a luminescence plate reader. […] 50 μl CellTiterGlo was added per well, and the plate was read in a luminescence plate reader after 10 min. The reading was plotted vs. cell number to generate a standard curve and the equation of the curve fit. The compound-treated sample luminescence readings were converted to cell numbers using the curve-fit equation. The percent of inhibition, using untreated control as 100% growth, was then calculated. GI50 was then calculated by GraphPad Prism.

[3] = system: ERK1/2 phosphorylation of p90RSK in HT29 cells; test: pRSK MSD Assay in HT29 cells; assay type: cell-based; settings: Homo sapiens, HT-29, read-out: ERK1/ERK2 PRSK MSD HT29 EC50
Method in brief: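 Serum-starved HT29 cells (0.1% FBS overnight) treated with test compound for 120 min at 37° C, then lysed with protease and phosphatase inhibitors. Phospho-p90RSK quantified by MSD sandwich immunoassay: RSK capture antibody, phospho-RSK detection antibody plus Sulfo-tagged antibody, electrochemiluminescence read.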

MEK1 activated ERK1 = target: T1, MEK1 activated ERK1 (Homo sapiens, UniProt P27361); test: Omnia continuous-read kinase assay for potency against MEK1 activated ERK1; assay type: biochemical; settings: MEK1 activated ERK1, ATP at KM; read-out: ERK1 Omnia WT ATP KM IC50
T1 construct: purchased Millipore (Billerica, Mass.) 14-439-K
T1 sequence (P27361 whole entry): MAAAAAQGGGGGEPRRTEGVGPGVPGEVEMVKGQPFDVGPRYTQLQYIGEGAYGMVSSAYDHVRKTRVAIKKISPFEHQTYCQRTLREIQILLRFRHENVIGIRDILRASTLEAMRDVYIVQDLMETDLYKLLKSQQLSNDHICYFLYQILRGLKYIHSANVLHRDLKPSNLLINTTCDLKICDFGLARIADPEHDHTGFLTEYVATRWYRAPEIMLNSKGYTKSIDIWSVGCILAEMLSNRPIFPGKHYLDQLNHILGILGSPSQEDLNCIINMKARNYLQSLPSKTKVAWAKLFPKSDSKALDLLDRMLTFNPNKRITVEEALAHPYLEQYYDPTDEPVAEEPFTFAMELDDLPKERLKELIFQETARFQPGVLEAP
Method in brief: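 Apparent IC50 came from initial reaction slopes (RFU vs time) plotted against log inhibitor with a variable-slope fit. Reactions were started with ERK1 (4 nM final) added to 50 μM ATP, roughly at its appKM, and 10 μM Sox-conjugated ST17 peptide in 20 mM Tris pH 7.5, 5 mM MgCl2. Fluorescence was monitored every 71 seconds.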

## C=CC(=O)Nc1ccccc1Nc1nc(N[C@H]2CCCN(C(N)=O)C2)ncc1C(F)(F)F [Compound I-18, (S)-3-((4-((2-Acrylamidophenyl)amino)-5-(trifluoromethyl)pyrimidin-2-yl)amino)piperidine-1-carboxamide]
[1]
  GI50: 101 to 500 nM
[2]
  GI50: 101 to 500 nM
[3]
  EC50: 101 to 500 nM

## O=C(CCCl)Nc1ccccc1Nc1nc(N[C@H]2CCCN(C(=O)CO)C2)ncc1C(F)(F)F [Compound I-22, (S)-3-Chloro-N-(2-((2-((1-(2-hydroxyacetyl)piperidin-3-yl)amino)-5-(trifluoromethyl)pyrimidin-4-yl)amino)phenyl)propanamide]
MEK1 activated ERK1
  IC50: 101 to 500 nM
[1]
  GI50: 501 to 999 nM
[2]
  GI50: 101 to 500 nM
[3]
  EC50: > 1000 nM

## C=CC(=O)Nc1ccccc1Nc1nc(NC2CCC(=O)CC2)ncc1C(F)(F)F [Compound I-23, N-(2-((2-((4-Oxocyclohexyl)amino)-5-(trifluoromethyl)pyrimidin-4-yl)amino)phenyl)acrylamide]
[1]
  GI50: < 100 nM
[2]
  GI50: 101 to 500 nM

## C=CC(=O)Nc1ccc(C)cc1Nc1nc(N[C@H]2CCCN(C(=O)CO)C2)ncc1C(F)(F)F [Compound I-37, (S)—N-(2-((2-((1-(2-hydroxyacetyl)piperidin-3-yl)amino)-5-(trifluoromethyl)pyrimidin-4-yl)amino)-4-methylphenyl)acrylamide]
[1]
  GI50: < 100 nM
[2]
  GI50: < 100 nM
[3]
  EC50: < 100 nM

## C=CC(=O)Nc1cc(C)ccc1Nc1nc(NC2CCC(=O)CC2)ncc1C(F)(F)F [Compound I-38, N-(5-Methyl-2-((2-((4-oxocyclohexyl)amino)-5-(trifluoromethyl)pyrimidin-4-yl)amino)phenyl)acrylamide]
[1]
  GI50: 501 to 999 nM
[2]
  GI50: 101 to 500 nM
[3]
  EC50: > 1000 nM

## C=CC(=O)Nc1cc(C)ccc1Nc1nc(N[C@H]2CCCN(C(=O)CC)C2)ncc1C(F)(F)F [Compound I-41, (S)—N-(5-Methyl-2-((2-((1-propionylpiperidin-3-yl)amino)-5-(trifluoromethyl)pyrimidin-4-yl)amino)phenyl)acrylamide]
[1]
  GI50: < 100 nM
[2]
  GI50: < 100 nM

## C=CC(=O)Nc1cc(C)ccc1Nc1nc(N[C@H]2CCCN(C(=O)CN)C2)ncc1C(F)(F)F [Compound I-42, (S)—N-(2-((2-((1-(2-Aminoacetyl)piperidin-3-yl)amino)-5-(trifluoromethyl)pyrimidin-4-yl)amino)-5-methylphenyl)acrylamide]
[1]
  GI50: > 1000 nM
[2]
  GI50: > 1000 nM
[3]
  EC50: 101 to 500 nM

## C=C(C)S(=O)(=O)Nc1ccccc1Nc1nc(N[C@H]2CCCN(C(=O)CO)C2)ncc1C(F)(F)F [Compound I-46, (S)—N-(2-((2-((1-(2-Hydroxyacetyl)piperidin-3-yl)amino)-5-(trifluoromethyl)pyrimidin-4-yl)amino)phenyl)prop-1-ene-2-sulfonamide]
[1]
  GI50: 501 to 999 nM
[2]
  GI50: 501 to 999 nM
[3]
  EC50: 501 to 999 nM

## C=C(C)S(=O)(=O)Nc1cc(C)ccc1Nc1nc(N[C@H]2CCCN(C(=O)CO)C2)ncc1C(F)(F)F [Compound I-47, (S)—N-(2-((2-((1-(2-Hydroxyacetyl)piperidin-3-yl)amino)-5-(trifluoromethyl)pyrimidin-4-yl)amino)-5-methylphenyl)prop-1-ene-2-sulfonamide]
[1]
  GI50: 101 to 500 nM
[2]
  GI50: < 100 nM
[3]
  EC50: 101 to 500 nM

## C/C=C/S(=O)(=O)Nc1cc(F)ccc1Nc1nc(N[C@H]2CCCN(C(=O)CO)C2)ncc1C(F)(F)F [Compound I-48, (S,E)-N-(5-Fluoro-2-((2-((1-(2-hydroxyacetyl)piperidin-3-yl)amino)-5-(trifluoromethyl)pyrimidin-4-yl)amino)phenyl)prop-1-ene-1-sulfonamide]
[1]
  GI50: > 1000 nM
[2]
  GI50: > 1000 nM

## C=CC(=O)Nc1ccccc1Nc1nc(Nc2cc(C(N)=O)ccc2OC)ncc1C(F)(F)F [Compound I-70, 3-((4-((2-Acrylamidophenyl)amino)-5-(trifluoromethyl)pyrimidin-2-yl)amino)-4-methoxybenzamide]
[1]
  GI50: < 100 nM
[2]
  GI50: < 100 nM
[3]
  EC50: < 100 nM

## C=CC(=O)Nc1cc(C)ccc1Nc1nc(Nc2cc(C(N)=O)ccc2C)ncc1C(F)(F)F [Compound I-79, 3-((4-((2-Acrylamido-4-methylphenyl)amino)-5-(trifluoromethyl)pyrimidin-2-yl)amino)-4-methylbenzamide]
MEK1 activated ERK1
  IC50: 101 to 500 nM
[1]
  GI50: < 100 nM
[2]
  GI50: < 100 nM
[3]
  EC50: < 100 nM

## C=CC(=O)Nc1ccccc1Nc1nc(Nc2cc(C(=O)NC)c(F)cc2C)ncc1C(F)(F)F [Compound I-80, 5-((4-((2-Acrylamidophenyl)amino)-5-(trifluoromethyl)pyrimidin-2-yl)amino)-2-fluoro-N,4-dimethylbenzamide]
MEK1 activated ERK1
  IC50: 101 to 500 nM
[1]
  GI50: < 100 nM
[2]
  GI50: 101 to 500 nM
[3]
  EC50: 101 to 500 nM

## C=CC(=O)Nc1ccccc1Nc1nc(NC2CCOCC2)ncc1Cl [Compound I-108, N-(2-((5-chloro-2-((tetrahydro-2H-pyran-4-yl)amino)pyrimidin-4-yl)amino)phenyl)acrylamide]
[1]
  GI50: < 100 nM
[2]
  GI50: 101 to 500 nM

## C=CC(=O)Nc1ccccc1Nc1nc(N[C@H]2CCCN(C(=O)CC)C2)ncc1Cl [Compound I-131, (S)—N-(2-((5-chloro-2-((1-propionylpiperidin-3-yl)amino)pyrimidin-4-yl)amino)phenyl)acrylamide]
[1]
  GI50: < 100 nM
[2]
  GI50: < 100 nM
[3]
  EC50: < 100 nM

## C=CC(=O)Nc1ccccc1Nc1nc(N[C@H]2CCCN(C(=O)[C@@H](C)O)C2)ncc1Cl [Compound I-134, N-(2-((5-chloro-2-(((S)-1-((R)-2-hydroxypropanoyl)piperidin-3-yl)amino)pyrimidin-4-yl)amino)phenyl)acrylamide]
[1]
  GI50: < 100 nM
[2]
  GI50: < 100 nM
[3]
  EC50: 101 to 500 nM

## C=CC(=O)Nc1ccccc1Nc1nc(Nc2cc(C(=O)NOC)ccc2C)ncc1Cl [Compound I-191, 3-((4-((2-acrylamidophenyl)amino)-5-chloropyrimidin-2-yl)amino)-N-methoxy-4-methylbenzamide]
[1]
  GI50: < 100 nM
[2]
  GI50: < 100 nM
[3]
  EC50: 101 to 500 nM

## C=CC(=O)Nc1cc(C)ccc1Nc1nc(Nc2cc(C(N)=O)ccc2C)ncc1Cl [Compound I-229, 3-((4-((2-acrylamido-4-methylphenyl)amino)-5-chloropyrimidin-2-yl)amino)-4-methylbenzamide]
[1]
  GI50: < 100 nM
[2]
  GI50: < 100 nM
[3]
  EC50: 101 to 500 nM

## CN(C)CCC(=O)Nc1ccccc1Nc1nc(N[C@H]2CCCN(C(=O)CO)C2)ncc1C(F)(F)F [Compound I-276, (S)-3-(dimethylamino)-N-(2-((2-((1-(2-hydroxyacetyl)piperidin-3-yl)amino)-5-(trifluoromethyl)pyrimidin-4-yl)amino)phenyl)propanamide]
[1]
  GI50: 101 to 500 nM
[2]
  GI50: > 1000 nM
[3]
  EC50: > 1000 nM

## NC(=O)c1ccccc1Nc1nc(N[C@H]2CCCN(C(=O)CO)C2)ncc1C(F)(F)F [Compound I-307, (S)-2-((2-((1-(2-hydroxyacetyl)piperidin-3-yl)amino)-5-(trifluoromethyl)pyrimidin-4-yl)amino)benzamide]
[1]
  GI50: 101 to 500 nM
[2]
  GI50: < 100 nM
[3]
  EC50: > 1000 nM

## CC(C)S(=O)(=O)c1ccccc1Nc1nc(N[C@H]2CCCN(C(=O)CO)C2)ncc1C(F)(F)F [Compound I-310, (S)-2-hydroxy-1-(3-((4-((2-(isopropylsulfonyl)phenyl)amino)-5-(trifluoromethyl)pyrimidin-2-yl)amino)piperidin-1-yl)ethanone]
[1]
  GI50: < 100 nM
[2]
  GI50: < 100 nM
[3]
  EC50: 501 to 999 nM

## CCC(=O)Nc1ccccc1Nc1nc(N[C@H]2CCCN(C(C)=O)C2)ncc1C(F)(F)F [Compound I-317, (S)—N-(2-((2-((1-acetylpiperidin-3-yl)amino)-5-(trifluoromethyl)pyrimidin-4-yl)amino)phenyl)propionamide]
[1]
  GI50: < 100 nM
[2]
  GI50: < 100 nM
[3]
  EC50: > 1000 nM

## CCC(=O)Nc1ccccc1Nc1nc(N[C@H]2CCCN(C(=O)CO)C2)ncc1C(F)(F)F [Compound I-318, (S)—N-(2-((2-((1-(2-hydroxyacetyl)piperidin-3-yl)amino)-5-(trifluoromethyl)pyrimidin-4-yl)amino)phenyl)propionamide]
[1]
  GI50: 101 to 500 nM
[2]
  GI50: < 100 nM
[3]
  EC50: 501 to 999 nM
